Converted amounts (≈) assume the structure as drawn.
Experiments:
[1] = test system: MDCK cells; assay: Uptake and transport of docetaxel through MDCK cell monolayers (transwell); assay type: in vitro ADME, canine; conditions: EGCG-docetaxel solution 250 micrograms/ml, 2 hours 37° C., compared to tween or diblock copolymer micellar solutions
From the text: (§1) The canine kidney cells, known as MDCK cells, are a non cancer proliferating cell line from canine kidneys. The MDR derivative of these cells is a multi-drug resistant version. The cell lines MDCK and MDCK-MDR are routinely used in the field of drug resistance because in the MDCK cells drugs can accumulate and kill the cells whereas the MDR cells contain drug efflux proteins that efflux the drug so that much higher drug doses are needed to maintain intracellular concentrations sufficient to kill these cells. […]
(§2) MDCK cells were seeded at 10000 cells per transwell membrane (Becton and Dickenson: 0.3 microns, 1 cm diameter) and grown for one week until a continuous monolayer was present. Drug at 250 micrograms/ml (doped with ^3H docetaxel, with carrier (tween, diblock (2000 40-60) PDLLA-mepeg or EGCG), all in hanks buffer, were added to the top well (0.4 ml) with 1.2 ml of hanks buffer in the base well. The wells were incubated at 37° C. for two hours. The transwells were then disassembled and the amount of drug in the base reservoir (transported through the cells) or in the cells (determined by dissolution of the filter after 3 washes in hanks buffer) was determined by liquid scintillation counting.

[2] = test system: mdck-mdr cells; assay: Uptake and transport of docetaxel through MDCK-MDR cell monolayers (transwell); assay type: in vitro ADME, canine; conditions: EGCG-docetaxel solution 250 micrograms/ml, 2 hours 37° C., compared to tween or diblock copolymer micellar solutions
From the text: as §1, §2

[3] = 24 h
[4] = Rate of paclitaxel release from EGCG carrier coatings on balloon catheters; assay type: physicochemical
Experimental: A balloon catheter was inflated and revolved along its horizontal axis. […] The drug/EGCG solution was slowly pipetted onto the balloon using 25 microliters at a time and dried with gentle heat from an electric blowdryer. The catheter assembly was then left overnight to dry. To measure the drug release the catheter was inflated and immersed in 5 ml of PBS-albumin buffer at pH 7.4 for a specific time with mild revolution to create movement. The catheter was then removed and placed in a new tube containing 5 ml of PBS-Album in for the second drug release time point. One ml of dichloromethane was added to each 5 ml of PBS and the tube shaken. The contents were allowed to settle and the top liquid aspirated off. The dichloromemethane was allowed to dry and then the solids were redissolved in 60/40 acetonitrile/water v/v and drug quantitated by HPLC analysis (c18 column, 58/5/37 acetonitrile/methanol/water at 1 ml/min flow rate with detection at 232 nm)

[5] = physchem
[6] = test system: mdck-mdr cells; assay: Uptake of paclitaxel into drug resistant mdck-mdr cells with or without EGCG; assay type: cell-based, canine
[7] = test system: canine kidney (mdck) cells; assay: Uptake of paclitaxel into mdck cells with or without EGCG; assay type: cell-based
[8] = test system: fresh rat aorta artery; assay: Paclitaxel uptake into artery tissue from coated balloon catheter; assay type: in vitro ADME; conditions: for available paclitaxel taken up by the artery / available paclitaxel washed out from the artery: ignoring catheter residual and gloves wash
Experimental: A 2-3 cm strip of fresh rat aorta artery was placed over a 200 microliter pipette tip and fed onto the deflated balloon catheter to mimic the feeding of the balloon into the blood vessel. The balloon was then inflated and the system was left for 2 minutes at 37° C. in a bath of Hanks buffered salt solution (HBSS). The balloon was then deflated and 300 microliters of HBSS pipetted into the artery and the wash out collected in a centrifuge tube. This wash step was repeated three times. Because the handler's gloves were moist and had contacted the balloon (and therefore absorbed some EGCG/drug) the gloves fingers were washed extensively in 100 ml of HBSS.
The aorta tissue was placed in 500 microliters of tissue solubilizer and left at 60° C. for 4 hours to digest. The contents were then placed in a scintillation counter. The deployed catheter balloon was observed after the procedure. Some of the balloon had not deployed (the balloon was tight in the aorta and not fully inflated) and traces of the reddish colored EGCG/drug could be observed in the folds. […] The catheter balloon was then inflated in 5 ml of acetonitrile to recover the undissolved EGCG and measured by scintillation counting. All other fractions (aorta wash and gloves wash were also counted. These four fractions (aorta, gloves, catheter residual and aorta wash) accounted for all drug and the total scintillation count form everything was taken and 100% of the applied drug.
A balloon catheter was inflated and revolved along its horizontal axis. The drug/EGCG solution was slowly pipetted onto the balloon using 25 microliters at a time and dried with gentle heat from an electric blowdryer. A 2-3 cm strip of fresh rat aorta artery was placed over a 200 microliter pipette tip and fed onto the deflated balloon catheter to mimic the feeding of the balloon into the blood vessel. The balloon was then inflated and the system was sonicated for 2 minutes at 37° C. in Hanks buffered salt solution (HBSS) (4 MHz, 30 watts/cm2). The balloon was then deflated and 300 microl of (HBSS) was pipetted into the artery and the wash out collected in a centrifuge tube. This wash step was repeated three times. Samples were collected as in the previous example.
A balloon catheter was inflated and revolved along its horizontal axis. The drug/diblock solution was slowly pipetted onto the balloon using 25 microliters at a time and dried with gentle heat from an electric blowdryer. […] A 2-3 cm strip of fresh rat aorta artery was placed over a 200 ul pipette tip and fed onto the deflated balloon catheter to mimic the feeding of the balloon into the blood vessel. The system was then immersed in Hanks buffered salt solution (HBSS) at 37° C. for 2 minutes.
A balloon catheter was inflated and revolved along its horizontal axis. The drug/tannic acid solution was slowly pipetted onto the balloon using 25 microliters at a time and dried with gentle heat from an electric blowdryer.

[9] = co-incubated with EGCG at 50 microg/ml

Compound: CC(=O)O[C@@]12CO[C@@H]1C[C@H](O)[C@@]1(C)C(=O)[C@H](O)C3=C(C)[C@@H](OC(=O)[C@H](O)[C@@H](NC(=O)OC(C)(C)C)c4ccccc4)C[C@@](O)([C@@H](OC(=O)c4ccccc4)[C@H]21)C3(C)C [docetaxel]
- amount of docetaxel accumulated in the cells or transported through the cells [1]: increased
- amount of docetaxel accumulated in the cells or transported through the cells [2]: increased

Compound: CC(=O)O[C@H]1C(=O)[C@@]2(C)[C@H]([C@H](OC(=O)c3ccccc3)[C@]3(O)C[C@H](OC(=O)[C@H](O)[C@@H](NC(=O)c4ccccc4)c4ccccc4)C(C)=C1C3(C)C)[C@]1(OC(C)=O)CO[C@@H]1C[C@@H]2O [paclitaxel]
- stability of EGCG solutions of the drug [3]: not stable over 24 hours
- stability of tannic acid solutions of the drug [3]: stable for 24 hours
- release of paclitaxel from coated balloon catheter ([4]; EGCG alone (zero percentage diblock copolymer), PBS-albumin pH 7.4): all paclitaxel was released in one minute
- time to complete release of paclitaxel ([4]; EGCG with 10 percentage diblock copolymer): ≤ 2 min
- time to complete release of paclitaxel ([4]; EGCG with 20 percentage diblock copolymer): ≤ 2 min
- release rate of paclitaxel ([4]; EGCG with 50% diblock copolymer): slowed the release rate dramatically
- solubility ([5]; aqueous with cosolvent or surfactant or cyclodextrin, thermodynamic from solid, drug concentration solubilised at maximum EGCG concentration): ~1000 µg/mL (≈ 1170 µM)
- solubility ([5]; aqueous with cosolvent or surfactant or cyclodextrin, thermodynamic from solid, drug concentration solubilised at maximum tannic acid concentration): ~4800 µg/mL (≈ 5620 µM)
- solubility ([5]; water, free solubility in water): 1 µg/mL (≈ 1.17 µM)
- paclitaxel level in cells [6, 9]: ≤ 2000 pg/mg
- paclitaxel level in cells ([6]; paclitaxel alone): < 200 pg/mg cellular protein
- increase in drug uptake with EGCG ([6]; with EGCG versus alone): 10 fold
- paclitaxel level in cells [7, 9]: ≤ 2000 pg/mg
- paclitaxel level in cells ([7]; paclitaxel alone): approximately 200 pg/mg cellular protein
- increase in drug uptake with EGCG ([7]; with EGCG versus alone): 10 fold
- total paclitaxel associated with the artery ([8]; EGCG coating (30 mg EGCG, 300 microgram drug), 2 minutes 37° C.): More than 50%
- total paclitaxel washed out of the artery ([8]; EGCG coating with ultrasound): 2%
- total paclitaxel associated with the artery ([8]; EGCG coating with ultrasound (4 MHz, 30 watts/cm2), 2 minutes): More than 50%
- available paclitaxel taken up by the artery ([8]; EGCG coating with ultrasound): approximately 95%
- available paclitaxel washed out from the artery ([8]; EGCG coating with ultrasound): less than 5%
- total paclitaxel washed out of the artery ([8]; EGCG coating, 2 minutes 37° C.): 2%
- available paclitaxel taken up by the artery ([8]; EGCG coating): approximately 95%
- available paclitaxel washed out from the artery ([8]; EGCG coating): less than 5%
- total paclitaxel washed out of the artery ([8]; diblock copolymer coating): less than 2%
- total paclitaxel associated with the artery ([8]; diblock copolymer coating (6 mg), 2 minutes): Approximately 10%
- residual on the catheter ([8]; tannic acid coating): approximately 29%
- total paclitaxel associated with the artery ([8]; tannic acid coating): Approximately 40%
- total paclitaxel washed out of the artery ([8]; tannic acid coating): less than 1%
- available drug transferred to the tissues ([8]; tannic acid coating, ignoring drug on catheter and gloves): over 95%

Source: patent publication US11707557B2, “Compositions and devices incorporating water-insoluble therapeutic agents and methods of the use thereof” (COOK MEDICAL TECHNOLOGIES LLC, priority 2014, dated 2023)
